Legend:
Assay in all cases: Bliss interaction score (quartile over a dose matrix) (fitness difference); higher = more antagonism (negative = synergy)
[1] = system: B. subtilis 168
How it was run: (§1)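 Values were capped at 1 after dividing OD595 at stationary-phase entry by the plate's robust no-drug mean. This ratio is fitness, and single-drug fitness was inferred from the combination data. The Bliss score is observed minus product-expected fitness, given as quartiles over technical, biological and donor/recipient replicates.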

[2] = system: S. aureus DSM 20231
How it was run: as §1

[3] = system: S. aureus Newman
How it was run: as §1

[4] = system: S. pneumoniae D39V
How it was run: as §1
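Further: first quartile when negative (synergy) and third quartile when positive (antagonism).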

Molecule `CC1(C)S[C@@H]2[C@H](NC(=O)[C@H](N)c3ccc(O)cc3)C(=O)N2[C@H]1C(=O)O` [Amoxicillin] + CN[C@H](CC(C)C)C(=O)N[C@H]1C(=O)N[C@@H](CC(N)=O)C(=O)N[C@H]2C(=O)N[C@H]3C(=O)N[C@H](C(=O)N[C@H](C(=O)O)c4cc(O)cc(O)c4-c4cc3ccc4O)[C@H](O[C@H]3C[C@](C)(N)[C@@H](O)[C@H](C)O3)c3ccc(c(Cl)c3)Oc3cc2cc(c3O[C@@H]2O[C@H](CO)[C@@H](O)[C@H](O)[C@H]2O[C@H]2C[C@](C)(NCc3ccc(-c4ccc(Cl)cc4)cc3)[C@@H](O)[C@H](C)O2)Oc2ccc(cc2Cl)[C@H]1O [Oritavancin] has a Bliss interaction score [1] of 0.0439, a Bliss interaction score [2] of 0.0659 and a Bliss interaction score [3] of 0.131. It also gave a Bliss interaction score [4] of -0.0312.

`CC1(C)S[C@@H]2[C@H](NC(=O)[C@H](N)c3ccc(O)cc3)C(=O)N2[C@H]1C(=O)O` [Amoxicillin] + CO[C@@H]1[C@@H](OC(N)=O)[C@@H](O)[C@H](Oc2ccc3c(O)c(NC(=O)c4ccc(O)c(CC=C(C)C)c4)c(=O)oc3c2C)OC1(C)C [Novobiocin] gave a Bliss interaction score [1] of 0.0931, a Bliss interaction score [2] of 0.0568 and a Bliss interaction score [3] of -0.0655. The Bliss interaction score [4] was 0.125.

Work on `Cc1ccc(-c2cc(C(F)(F)F)nn2-c2ccc(S(N)(=O)=O)cc2)cc1` [Celecoxib] + CC[C@H]1OC(=O)[C@H](C)C(=O)[C@H](C)[C@@H](O[C@@H]2O[C@H](C)C[C@H](N(C)C)[C@H]2O)[C@](C)(OC)C[C@@H](C)C(=O)[C@H](C)[C@H]2N(CCCCn3cnc(-c4cccnc4)c3)C(=O)O[C@]12C [Telithromycin] yielded a Bliss interaction score [2] of -0.162.

With `Cc1ccc(-c2cc(C(F)(F)F)nn2-c2ccc(S(N)(=O)=O)cc2)cc1` [Celecoxib] + CN(C)C(=O)C(CCN1CCC(O)(c2ccc(Cl)cc2)CC1)(c1ccccc1)c1ccccc1 [Loperamide] the Bliss interaction score [2] was -0.452.

With `CCN(CC)C(=O)/C(C#N)=C/c1cc(O)c(O)c([N+](=O)[O-])c1` [Entacapone] + CC(=O)NC[C@H]1CN(c2ccc(N3CCOCC3)c(F)c2)C(=O)O1 [Linezolid] the Bliss interaction score [2] was -0.178.

For `CCN(CC)C(=O)/C(C#N)=C/c1cc(O)c(O)c([N+](=O)[O-])c1` [Entacapone] + CN1C2=CC=CC=C2N=C3C1=CC=CC3=O [Pyocyanin], the Bliss interaction score [2] was -0.283.

`CCN(CC)C(=O)/C(C#N)=C/c1cc(O)c(O)c([N+](=O)[O-])c1` [Entacapone] + CO[C@@]12[C@H](COC(N)=O)C3=C(C(=O)C(C)=C(N)C3=O)N1C[C@@H]1N[C@@H]12 [MitomycinC] was tested, and the Bliss interaction score [2] was 0.176.

`C[C@]12CC[C@@H]3c4ccc(O)cc4CC[C@H]3[C@@H]1CC[C@@H]2O` [Estradiol] + CC1(C)S[C@@H]2[C@H](NC(=O)Cc3ccccc3)C(=O)N2[C@H]1C(=O)O [PenicillinG] gave a Bliss interaction score [2] of 0.255.

In the case of `C[C@]12CC[C@@H]3c4ccc(O)cc4CC[C@H]3[C@@H]1CC[C@@H]2O` [Estradiol] + CC[C@H]1OC(=O)[C@H](C)C(=O)[C@H](C)[C@@H](O[C@@H]2O[C@H](C)C[C@H](N(C)C)[C@H]2O)[C@](C)(OC)C[C@@H](C)C(=O)[C@H](C)[C@H]2N(CCCCn3cnc(-c4cccnc4)c3)C(=O)O[C@]12C [Telithromycin], the Bliss interaction score [2] was 0.268.

With `C[C@]12CC[C@@H]3c4ccc(O)cc4CC[C@H]3[C@@H]1CC[C@@H]2O` [Estradiol] + CO[C@@]12[C@H](COC(N)=O)C3=C(C(=O)C(C)=C(N)C3=O)N1C[C@@H]1N[C@@H]12 [MitomycinC] the Bliss interaction score [2] was 0.179.

`C[C@]12CC[C@@H]3c4ccc(O)cc4CC[C@H]3[C@@H]1CC[C@@H]2O` [Estradiol] + COc1cc(Cc2cnc(N)nc2N)cc(OC)c1OC [Trimethoprim] gave a Bliss interaction score [2] of 0.263.

`C[C@H]1COc2c(N3CCN(C)CC3)c(F)cc3c(=O)c(C(=O)O)cn1c23` [Levofloxacin] + Cc1c(Cl)cccc1Nc1ccccc1C(=O)O [Tolfenamic] was tested, and the Bliss interaction score [2] was -0.164.

Molecule `CN(C)C(=O)C(CCN1CCC(O)(c2ccc(Cl)cc2)CC1)(c1ccccc1)c1ccccc1` [Loperamide] + CC(C)(O)c1ccccc1CC[C@@H](SCC1(CC(=O)O)CC1)c1cccc(/C=C/c2ccc3ccc(Cl)cc3n2)c1 [Montelukast] has a Bliss interaction score [2] of -0.28.

`CN(C)C(=O)C(CCN1CCC(O)(c2ccc(Cl)cc2)CC1)(c1ccccc1)c1ccccc1` [Loperamide] + CCCSc1nc(N[C@@H]2C[C@H]2c2ccc(F)c(F)c2)c2nnn([C@@H]3C[C@H](OCCO)[C@@H](O)[C@H]3O)c2n1 [Ticagrelor] was tested, and the Bliss interaction score [2] was -0.453.

For `CN(C)C(=O)C(CCN1CCC(O)(c2ccc(Cl)cc2)CC1)(c1ccccc1)c1ccccc1` [Loperamide] + CCOC(=O)N1CCC(=C2c3ccc(Cl)cc3CCc3cccnc32)CC1 [Loratadine], the Bliss interaction score [2] was -0.278.

`CN(C)C(=O)C(CCN1CCC(O)(c2ccc(Cl)cc2)CC1)(c1ccccc1)c1ccccc1` [Loperamide] + CN1CCN(C2=Nc3ccccc3Oc3ccc(Cl)cc32)CC1 [Loxapine] was tested, and the Bliss interaction score [2] was 0.122.

Molecule `CN(C)C(=O)C(CCN1CCC(O)(c2ccc(Cl)cc2)CC1)(c1ccccc1)c1ccccc1` [Loperamide] + CN(Cc1cnc2nc(N)nc(N)c2n1)c1ccc(C(=O)N[C@@H](CCC(=O)O)C(=O)O)cc1 [Methotrexate] has a Bliss interaction score [2] of -0.309.

Work on `CN(C)C(=O)C(CCN1CCC(O)(c2ccc(Cl)cc2)CC1)(c1ccccc1)c1ccccc1` [Loperamide] + C[C@H]1C[C@@H]2[C@H]([C@@H](O)C[C@@]3(C)[C@H]2CC[C@]3(O)C(=O)CO)[C@@]2(C)C=CC(=O)C=C12 [Methylprednisolone] yielded a Bliss interaction score [2] of -0.341.

With `CN(C)C(=O)C(CCN1CCC(O)(c2ccc(Cl)cc2)CC1)(c1ccccc1)c1ccccc1` [Loperamide] + O=C(O)Cc1cc(I)c(Oc2ccc(O)c(I)c2)c(I)c1 [Tiratricol] the Bliss interaction score [2] was 0.751.

`CN(C)C(=O)C(CCN1CCC(O)(c2ccc(Cl)cc2)CC1)(c1ccccc1)c1ccccc1` [Loperamide] + O=c1c(O)c(-c2ccc(O)c(O)c2)oc2cc(O)cc(O)c12 [Quercetin] was tested, and the Bliss interaction score [2] was 0.242.

For `C[C@H]1C[C@@H]2[C@H]([C@@H](O)C[C@@]3(C)[C@H]2CC[C@]3(O)C(=O)CO)[C@@]2(C)C=CC(=O)C=C12` [Methylprednisolone] + CC[C@H]1OC(=O)[C@H](C)C(=O)[C@H](C)[C@@H](O[C@@H]2O[C@H](C)C[C@H](N(C)C)[C@H]2O)[C@](C)(OC)C[C@@H](C)C(=O)[C@H](C)[C@H]2N(CCCCn3cnc(-c4cccnc4)c3)C(=O)O[C@]12C [Telithromycin], the Bliss interaction score [2] was -0.356.

`CCCSc1nc(N[C@@H]2C[C@H]2c2ccc(F)c(F)c2)c2nnn([C@@H]3C[C@H](OCCO)[C@@H](O)[C@H]3O)c2n1` [Ticagrelor] + CC1=C\[C@@H](O)CC(=O)Cc2nc(co2)C(=O)N2CCC=C2C(=O)O[C@H](C(C)C)[C@H](C)/C=C/C(=O)NC\C=C\1 [Virginiamycin M1] showed a Bliss interaction score [2] of 0.253.

Molecule `CCCSc1nc(N[C@@H]2C[C@H]2c2ccc(F)c(F)c2)c2nnn([C@@H]3C[C@H](OCCO)[C@@H](O)[C@H]3O)c2n1` [Ticagrelor] + CN(C)c1cc(NC(=O)CNC(C)(C)C)c(O)c2c1C[C@H]1C[C@H]3[C@H](N(C)C)C(O)=C(C(N)=O)C(=O)[C@@]3(O)C(O)=C1C2=O [Tigecycline] has a Bliss interaction score [2] of 0.216.

Molecule `CCCSc1nc(N[C@@H]2C[C@H]2c2ccc(F)c(F)c2)c2nnn([C@@H]3C[C@H](OCCO)[C@@H](O)[C@H]3O)c2n1` [Ticagrelor] + CN[C@H](CC(C)C)C(=O)N[C@H]1C(=O)N[C@@H](CC(N)=O)C(=O)N[C@H]2C(=O)N[C@H]3C(=O)N[C@H](C(=O)N[C@H](C(=O)O)c4cc(O)cc(O)c4-c4cc3ccc4O)[C@H](O)c3ccc(c(Cl)c3)Oc3cc2cc(c3O[C@@H]2O[C@H](CO)[C@@H](O)[C@H](O)[C@H]2O[C@H]2C[C@](C)(N)[C@H](O)[C@H](C)O2)Oc2ccc(cc2Cl)[C@H]1O [Vancomycin] has a Bliss interaction score [2] of 0.257.

In the case of `CCCSc1nc(N[C@@H]2C[C@H]2c2ccc(F)c(F)c2)c2nnn([C@@H]3C[C@H](OCCO)[C@@H](O)[C@H]3O)c2n1` [Ticagrelor] + COc1cc(Cc2cnc(N)nc2N)cc(OC)c1OC [Trimethoprim], the Bliss interaction score [2] was -0.152.

In the case of `CCCSc1nc(N[C@@H]2C[C@H]2c2ccc(F)c(F)c2)c2nnn([C@@H]3C[C@H](OCCO)[C@@H](O)[C@H]3O)c2n1` [Ticagrelor] + Oc1cc(Cl)ccc1Oc1ccc(Cl)cc1Cl [Triclosan], the Bliss interaction score [2] was 0.247.

From the supplement of paper PMC10627819
